Experiment [1] relates to HCV genotype 1b (Con1) replicon in HUH-7 cells. Kind of experiment: HCV replicon luciferase reporter assay, genotype 1b. The experiment is classed as cell-based. As to conditions: Hepatitis C virus, Huh-7, 72 h, HCV genotype 1b replicon luciferase, 3 days incubation, read-out: LE_1b (EC50, range). The essentials:
(§1)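 Replicon inhibition for both genotypes was measured as Renilla luciferase signal (EnduRen, 7.5 μM final, 2 h) after 3-day, 37° C exposure of replicon-bearing HUH-7 cells in 4% FCS DMEM, 0.5% DMSO. The 1b construct carries S1179I; the 1a H77 construct carries P1496L and S2204I. Twenty-point, 3-fold dilutions were fitted four-parametrically for EC50, and CC50 was taken from multiplexed Cell Titer-Blue.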

Experiment [2] has as its system HCV genotype 1a (H77 strain) replicon in HUH-7 cells. Kind of experiment: HCV replicon luciferase reporter assay, genotype 1a. The experiment is classed as cell-based. Particulars: Hepatitis C virus, Huh-7, 72 h, HCV genotype 1a replicon luciferase, 3 days incubation, read-out: LE_1a (EC50, range). The essentials:
as §1

Consider `CC[C@@H]1C[C@H](C)CC/C=C\[C@@H]2C[C@@]2(C(=O)NS(=O)(=O)C2(CF)CC2)NC(=O)[C@@H]2C[C@@H](Oc3nccc4c5c(ccc34)N(C)CCO5)CN2C(=O)[C@H]1NC(=O)OC(C)(C)C(C)(F)F` [Compound 5463, 3,3-difluoro-2-methylbutan-2-yl((2R,6S,7R,9R,13aS,14aR,16aS,Z)-7-ethyl-14a-(((1-(fluoromethyl)cyclopropyl)sulfonyl)carbamoyl)-9-methyl-2-((4-methyl-3,4-dihydro-2H-[1,4]oxazino[2,3-f]isoquinolin-7-yl)oxy)-5,16-dioxo-1,2,3,5,6,7,8,9,10,11,13a,14,14a,15,16,16a-hexadecahydrocyclopropa[e]pyrrolo[1,2-a][1,4]diazacyclopentadecin-6-yl)carbamate], for which the EC50 in experiment [1] and in experiment [2] was 5.01 to 35 nM each time.
Take `CC[C@@H]1C[C@H](C)CC/C=C\[C@@H]2C[C@@]2(C(=O)NS(=O)(=O)C2(CF)CC2)NC(=O)[C@@H]2C[C@@H](Oc3nccc4c5c(ccc34)N(C)CCO5)CN2C(=O)[C@H]1NC(=O)OC(C)(C)C(F)(F)F` [Compound 5465, 1,1,1-trifluoro-2-methylpropan-2-yl((2R,6S,7R,9R,13aS,14aR,16aS,Z)-7-ethyl-14a-(((1-(fluoromethyl)cyclopropyl)sulfonyl)carbamoyl)-9-methyl-2-((4-methyl-3,4-dihydro-2H-[1,4]oxazino[2,3-f]isoquinolin-7-yl)oxy)-5,16-dioxo-1,2,3,5,6,7,8,9,10,11,13a,14,14a,15,16,16a-hexadecahydrocyclopropa[e]pyrrolo[1,2-a][1,4]diazacyclopentadecin-6-yl)carbamate]: the EC50 in experiment [1] and in experiment [2] was 1.01 to 5 nM each time.
`[2H]C([2H])([2H])C(OC(=O)N[C@@H]1C(=O)N2C[C@H](Oc3ncc(OC)c4ccc(F)cc34)C[C@H]2C(=O)N[C@]2(C(=O)NS(=O)(=O)C3CC3)C[C@H]2/C=C\CC[C@@H](C)C[C@H]1CC)(C([2H])([2H])[2H])C(F)(F)F` [Compound 5467]: the EC50 in experiment [1] was 0.1 to 0.5 nM; in experiment [2], 1.01 to 5 nM.
With `CC[C@@H]1C[C@H](C)CC/C=C\[C@@H]2C[C@@]2(C(=O)NS(=O)(=O)C2CC2)NC(=O)[C@@H]2C[C@@H](Oc3ncc(OC)c4ccc(F)cc34)CN2C(=O)[C@H]1NC(=O)OC(C)(C)C(C)(F)F` [Compound 5469, 3,3-difluoro-2-methylbutan-2-yl((2R,6S,7R,9R,13aS,14aR,16aS,Z)-14a-((cyclopropylsulfonyl)carbamoyl)-7-ethyl-2-((7-fluoro-4-methoxyisoquinolin-1-yl)oxy)-9-methyl-5,16-dioxo-1,2,3,5,6,7,8,9,10,11,13a,14,14a,15,16,16a-hexadecahydrocyclopropa[e]pyrrolo[1,2-a][1,4]diazacyclopentadecin-6-yl)carbamate], the EC50 in experiment [1] was in the range of 0.1 to 0.5 nM; in experiment [2], 1.01 to 5 nM.
On to `[2H]C([2H])([2H])C(OC(=O)N[C@@H]1C(=O)N2C[C@H](Oc3nccc4cc(OC)c(F)cc34)C[C@H]2C(=O)N[C@]2(C(=O)NS(=O)(=O)C3CC3)C[C@H]2/C=C\CC[C@@H](C)C[C@H]1CC)(C([2H])([2H])[2H])C(F)(F)F` [Compound 5471], for which the EC50 in experiment [1] was in the range of 0.1 to 0.5 nM; in experiment [2], 1.01 to 5 nM.
With `CC[C@@H]1C[C@@H](C)CC/C=C\[C@@H]2C[C@@]2(C(=O)NS(=O)(=O)C2CC2)NC(=O)[C@@H]2C[C@@H](Oc3nccc4cc(OC)c(F)cc34)CN2C(=O)[C@H]1NC(=O)OC(C)(C)C(C)(F)F` [Compound 5472, 3,3-difluoro-2-methylbutan-2-yl((2R,6S,7R,9S,13aS,14aR,16aS,Z)-14a-((cyclopropylsulfonyl)carbamoyl)-7-ethyl-2-((7-fluoro-6-methoxyisoquinolin-1-yl)oxy)-9-methyl-5,16-dioxo-1,2,3,5,6,7,8,9,10,11,13a,14,14a,15,16,16a-hexadecahydrocyclopropa[e]pyrrolo[1,2-a][1,4]diazacyclopentadecin-6-yl)carbamate], the EC50 in experiment [1] and in experiment [2] was 1.01 to 5 nM in each case.

The record behind these values is patent US9499550B2 (BRISTOL-MYERS SQUIBB COMPANY, priority 2012, dated 2016).
